Values after ≈ are worked out from the molar mass of the structure shown.
Key:
Hepatitis C virus [1] = assay: Antiviral activity against HCV genotype 1b Con1 harboring NS3 R155K mutant infected in human HuH7 replicon cells after 3 days by luciferase reporter gene assay; assay type: functional, organism-based, Hepacivirus hominis; details: isolate Con1, Huh-7, 72 h
Hepatitis C virus [2] = assay: Resistance index, ratio of EC50 for HCV genotype 1b Con1 harboring NS3 R155K mutant infected in human HuH7 replicon cells to EC50 for HCV genotype 1b Con1 harboring wild type NS3 infected in human HuH7 replicon cells; assay type: functional, Hepacivirus hominis, isolate Con1
[3] = Half life in po dosed rat by LC-MS/MS analysis; assay type: ADME, organism-based; details: in vivo
[4] = Plasma clearance in dog at 1 mg/kg, iv by LC-MS/MS analysis; assay type: ADME, organism-based, Canis lupus familiaris
Hepatitis C virus [5] = assay: Antiviral activity against HCV genotype 1b Con1 infected in human HuH7 replicon cells after 3 days in absence of human plasma by luciferase reporter gene assay; assay type: functional, organism-based, Hepacivirus hominis; details: isolate Con1, Huh-7, 72 h
Canis familiaris [6] = assay: Dose normalized AUC in dog at 3 mg/kg, po after 24 hrs by LC-MS/MS analysis; assay type: ADME, organism-based, Canis lupus familiaris; details: in vivo
Hepatitis C virus [7] = assay: Antiviral activity against HCV genotype 1a H77 infected in human HuH7 replicon cells after 3 days in absence of human plasma by luciferase reporter gene assay; assay type: functional, organism-based, Hepacivirus hominis; details: genotype 1a H77, Huh-7, 72 h
Rattus norvegicus = assay: Dose normalized AUC in po dosed rat after 24 hrs by LC-MS/MS analysis; assay type: ADME, organism-based; details: in vivo
Hepatitis C virus [8] = assay: Ratio of EC50 in presence of 40% human plasma to EC50 in absence of human plasma for HCV genotype 1a H77 infected in human HuH7 replicon cells; assay type: functional, Hepacivirus hominis
Hepatitis C virus [9] = assay: Antiviral activity against HCV genotype 3a infected in human HuH7 replicon cells after 3 days in absence of human plasma by luciferase reporter gene assay; assay type: functional, organism-based, Hepacivirus hominis; details: Huh-7, 72 h
[10] = Oral bioavailability in rat by LC-MS/MS analysis; assay type: ADME, organism-based; details: in vivo
[11] = Half life in dog at 3 mg/kg, po by LC-MS/MS analysis; assay type: ADME, organism-based, Canis lupus familiaris; details: in vivo
Hepatitis C virus [12] = assay: Antiviral activity against HCV genotype 1a H77 harboring NS3 D168V mutant infected in human HuH7 replicon cells after 3 days by luciferase reporter gene assay; assay type: functional, organism-based, Hepacivirus hominis; details: genotype 1a H77, Huh-7, 72 h
Hepatitis C virus [13] = assay: Antiviral activity against HCV genotype 1a H77 harboring NS3 R155K mutant infected in human HuH7 replicon cells after 3 days by luciferase reporter gene assay; assay type: functional, organism-based, Hepacivirus hominis; details: genotype 1a H77, Huh-7, 72 h
[14] = Plasma clearance in iv dosed rat by LC-MS/MS analysis; assay type: ADME, organism-based
[15] = Apparent permeability of the compound by PAMPA; assay type: ADME
Hepatitis C virus [16] = assay: Antiviral activity against HCV genotype 1b Con1 infected in human HuH7 replicon cells after 3 days in presence of 40% human plasma by luciferase reporter gene assay; assay type: functional, organism-based, Hepacivirus hominis; details: isolate Con1, Huh-7, 72 h
Hepatitis C virus [17] = assay: Antiviral activity against HCV genotype 1b Con1 harboring NS3 D168V mutant infected in human HuH7 replicon cells after 3 days by luciferase reporter gene assay; assay type: functional, organism-based, Hepacivirus hominis; details: isolate Con1, Huh-7, 72 h
Hepatitis C virus [18] = assay: Antiviral activity against HCV genotype 1a H77 infected in human HuH7 replicon cells after 3 days in presence of 40% human plasma by luciferase reporter gene assay; assay type: functional, organism-based, Hepacivirus hominis; details: genotype 1a H77, Huh-7, 72 h
[19] = Half life in iv dosed rat by LC-MS/MS analysis; assay type: ADME, organism-based; details: in vivo
Canis familiaris [20] = assay: Fraction of drug absorbed into portal vein in dog at 3 mg/kg, po by LC-MS/MS analysis; assay type: ADME, organism-based, Canis lupus familiaris; details: in vivo
Hepatitis C virus [21] = assay: Resistance index, ratio of EC50 for HCV genotype 1a H77 harboring NS3 R155K mutant infected in human HuH7 replicon cells to EC50 for HCV genotype 1a H77 harboring wild type NS3 infected in human HuH7 replicon cells; assay type: functional, Hepacivirus hominis
[22] = Half life in dog at 1 mg/kg, iv by LC-MS/MS analysis; assay type: ADME, organism-based, Canis lupus familiaris; details: in vivo
[23] = Solubility in pH 7.2 buffer; assay type: physicochemical
Hepatitis C virus [24] = assay: Resistance index, ratio of EC50 for HCV genotype 1b Con1 harboring NS3 D168V mutant infected in human HuH7 replicon cells to EC50 for HCV genotype 1b Con1 harboring wild type NS3 infected in human HuH7 replicon cells; assay type: functional, Hepacivirus hominis, isolate Con1
Hepatitis C virus [25] = assay: Resistance index, ratio of EC50 for HCV genotype 1a H77 harboring NS3 D168V mutant infected in human HuH7 replicon cells to EC50 for HCV genotype 1a H77 harboring wild type NS3 infected in human HuH7 replicon cells; assay type: functional, Hepacivirus hominis
[26] = Ratio of EC50 for HCV genotype 3a infected in human HuH7 replicon cells to EC50 for HCV genotype 1a H77 infected in human HuH7 replicon cells; assay type: functional
[27] = Oral bioavailability in dog at 3 mg/kg by LC-MS/MS analysis; assay type: ADME, organism-based, Canis lupus familiaris; details: in vivo
MOLT-4 = assay: Antiproliferative activity against human MOLT4 cells in presence of 10% human serum; assay type: functional, cell-based
RS4-11 = assay: Antiproliferative activity against human RS4:11 cells in presence of 10% human serum; assay type: functional, cell-based

Structure (SMILES)	Ratio EC50 (Hepatitis C virus [2])	clearance [4]	EC50 (Hepatitis C virus [5])	AUC/dose (Canis familiaris [6])	EC50 (Hepatitis C virus [7])	AUC/dose (Rattus norvegicus)	Ratio EC50 (Hepatitis C virus [8])	bioavailability [10]	EC50 (Hepatitis C virus [12])	clearance [14]	Papp [15]	EC50 (Hepatitis C virus [16])	EC50 (Hepatitis C virus [17])	EC50 (Hepatitis C virus [18])	half-life [19]	FaFg (Canis familiaris [20])	Ratio EC50 (Hepatitis C virus [21])	half-life [22]	Solubility [23]	Ratio EC50 (Hepatitis C virus [24])	further results
Cc1cc(C(=O)N[C@H]2CCCCC/C=C\[C@@H]3C[C@@]3(C(=O)NS(=O)(=O)C3(C)CC3)NC(=O)[C@@H]3C[C@@H](Oc4nc5cc(F)ccc5nc4C(F)(F)F)CN3C2=O)no1	1	0.333 mL/min/kg	0.5 nM	46.8 µg·h/mL	0.7 nM	0.19 µg·h/mL	6 - 35	27%	14 nM	26.7 mL/min/kg	12.1 ×10⁻⁶ cm/s	11 nM	1.3 nM	9 nM	4.1 h	0.9	3	2.9 h	20.6 µM (≈ 16.6 µg/mL)	4	EC50 (Hepatitis C virus [1]): 0.4 nM; half-life [3]: 4.7 h; EC50 (Hepatitis C virus [9]): 124 nM; half-life [11]: 2.9 h; EC50 (Hepatitis C virus [13]): 0.3 nM; Ratio EC50 (Hepatitis C virus [25]): 127
Cc1cc(C(=O)N[C@H]2CCCCC/C=C\[C@@H]3C[C@@]3(C(=O)NS(=O)(=O)C3CC3)NC(=O)[C@@H]3C[C@@H](Oc4nc5cc(F)ccc5nc4C(F)(F)F)CN3C2=O)no1	1	0.667 mL/min/kg	0.5 nM	18 µg·h/mL	0.8 nM	0.14 µg·h/mL	6 - 35	28%	14 nM	38.3 mL/min/kg	5.1 ×10⁻⁶ cm/s	7 nM	1.5 nM	7 nM	2.1 h	0.8	3	3.5 h	155 µM (≈ 123 µg/mL)	5	Ratio EC50 [26]: >80; half-life [3]: 1.9 h; EC50 (Hepatitis C virus [9]): 64 to 83 nM; half-life [11]: 2.2 h; EC50 (Hepatitis C virus [13]): 0.3 nM; Ratio EC50 (Hepatitis C virus [25]): 149
CC(=O)N(C)[C@@H](CC(C)(C)C)C(=O)N[C@H]1CCCCC/C=C\[C@@H]2C[C@@]2(C(=O)NS(=O)(=O)C2(C)CC2)NC(=O)[C@@H]2C[C@@H](Oc3nc4cc(F)ccc4c4ccccc34)CN2C1=O	33	1.17 mL/min/kg	2 nM	11.6 µg·h/mL	0.5 nM	0.09 µg·h/mL	6 - 35	27%	0.4 nM	51.7 mL/min/kg	0.28 ×10⁻⁶ cm/s	12 nM	3 nM	7 nM	1.7 h	0.8	0.8	2.2 h	2.2 µM (≈ 1.89 µg/mL)	11	EC50 (Hepatitis C virus [1]): 8 nM; half-life [3]: 1.5 h; EC50 (Hepatitis C virus [9]): 4 to 8 nM; half-life [11]: 2.1 h; bioavailability [27]: 76%; EC50 (Hepatitis C virus [13]): 0.6 nM; Ratio EC50 (Hepatitis C virus [25]): 2
Cc1cc(C(=O)N[C@H]2CCCCC/C=C\[C@@H]3C[C@@]3(C(=O)NS(=O)(=O)C3(C)CC3)NC(=O)[C@@H]3C[C@@H](Oc4nc5ccccc5c5ccc(F)cc45)CN3C2=O)no1	4	0.333 mL/min/kg	0.5 nM	85 µg·h/mL	0.7 nM	0.16 µg·h/mL	6 - 35	40%	8 nM	41.7 mL/min/kg	0.19 ×10⁻⁶ cm/s	8 nM	0.9 nM	6 nM	3.2 h	1.4	18	2.3 h	1.9 µM (≈ 1.5 µg/mL)	9	EC50 (Hepatitis C virus [1]): 0.4 nM; half-life [3]: 3.5 h; EC50 (Hepatitis C virus [9]): 4 to 7 nM; half-life [11]: 2 h; bioavailability [27]: 140%; Ratio EC50 (Hepatitis C virus [25]): 168
Cc1cc(C(=O)N[C@H]2CCCCC/C=C\[C@@H]3C[C@@]3(C(=O)NS(=O)(=O)C3CC3)NC(=O)[C@@H]3C[C@@H](Oc4nc5ccccc5nc4C)CN3C2=O)no1	2	7.83 mL/min/kg	0.4 nM	0.3 µg·h/mL	1.4 nM	0.008 µg·h/mL	6 - 35	3.9%	94 nM	78.3 mL/min/kg	3.5 ×10⁻⁶ cm/s	9 nM	5 nM	30 nM	2.4 h	0.2	6	1.4 h	> 500 µM	2	EC50 (Hepatitis C virus [1]): 2 nM; bioavailability [27]: 13%; EC50 (Hepatitis C virus [13]): 3 nM; Ratio EC50 (Hepatitis C virus [25]): 177
CN(C)CC[C@H](CSc1ccccc1)Nc1ccc(S(=O)(=O)NC(=O)c2ccc(N3CCN(Cc4ccccc4-c4ccc(Cl)cc4)CC3)cc2)cc1[N+](=O)[O-] [ABT 737]	–	–	–	–	–	–	–	–	–	–	–	–	–	–	–	–	–	–	–	–	EC50 (MOLT-4): 622 nM; EC50 (RS4-11): 24 nM
CC1(C)CCC(CN2CCN(c3ccc(C(=O)NS(=O)(=O)c4ccc(NCC5CCOCC5)c([N+](=O)[O-])c4)c(Oc4cnc5[nH]ccc5c4)c3)CC2)=C(c2ccc(Cl)cc2)C1 [VENETOCLAX]	–	–	–	–	–	–	–	–	–	–	–	–	–	–	–	–	–	–	–	–	EC50 (MOLT-4): > 5000 nM; EC50 (RS4-11): 8 nM
